Values of other authors, collected in patent publication US5476933A, “Azepine synthesis via a diels-alder reaction” (priority 1994, dated 1995).

Columns and labels:
rodents = details: literature; cited from earlier work
PCP receptor = details: Wong et al. 1986; cited from earlier work

C[C@]12N[C@H](Cc3ccccc31)c1ccccc12 [MK-801]
PCP-like behavioral effects, in words (rodents): adverse PCP-like behavioral side effects
Kd (PCP receptor): ~3 nM
